Test results published in US20140107109A1, “AMINO-DIHYDROTHIAZINE AND AMINO-DIOXIDO DIHYDROTHIAZINE COMPOUNDS AS BETA-SECRETASE ANTAGONISTS AND METHODS OF USE” (Amgen Inc., priority 2012, published 2014).
Where two headings read alike, the source gives them in different places.

Assays:
[1] = biological target: Beta Secretase enzyme (BACE1) (Homo sapiens, UniProt P56817); experiment: In vitro enzymatic BACE FRET assay; assay type: biochemical; settings: read-out: BACE1 FRET assay IC50
Procedure, shortened: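 Readout: dequenched fluorescence (ex 488 nm/[…]) after neutralizing with Tris buffer. Reactions, begun by adding 50 nM quenched peptide substrate spanning the BACE cleavage site, were incubated one hour at pH 4.2 in 0.05 M acetate with 100 uM genapol and 10% final DMSO.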

Cathepsin D (Cat D) = biological target: T1, Cathepsin D (Cat D) (Homo sapiens, UniProt P07339); experiment: In vitro enzymatic Cathepsin D (Cat D) FRET assay; assay type: biochemical; settings: read-out: CatD IC50
T1 construct: Recombinant Cat D was expressed in CHO cells; made in house; host or cells: CHO cells
T1 sequence (P07339 65-412, species assumed): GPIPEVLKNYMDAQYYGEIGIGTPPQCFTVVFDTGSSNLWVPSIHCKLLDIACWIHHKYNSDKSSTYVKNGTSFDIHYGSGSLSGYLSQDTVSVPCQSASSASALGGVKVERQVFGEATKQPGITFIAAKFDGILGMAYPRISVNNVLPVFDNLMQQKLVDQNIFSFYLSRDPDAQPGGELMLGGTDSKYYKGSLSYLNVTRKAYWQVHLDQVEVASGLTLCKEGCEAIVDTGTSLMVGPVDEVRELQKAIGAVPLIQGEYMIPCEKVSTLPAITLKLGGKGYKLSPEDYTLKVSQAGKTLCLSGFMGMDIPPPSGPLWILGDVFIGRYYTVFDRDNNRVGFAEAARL
Procedure, shortened: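 FRET read-out: a fluorophore/quencher-labelled peptide substrate is cleaved by 9 nM Cat D (recombinant, CHO-expressed) following a one-hour preincubation with inhibitor dilutions in DMSO. Tris buffer added to neutralize pH ends the reaction before fluorescence measurement.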

[2] = test system: Aβ40 in conditioned medium of cells stably expressing Amyloid Precursor Protein (APP); experiment: In vitro BACE cell-based assay (HEK cell assay), Aβ40 sandwich ELISA; settings: Homo sapiens, HEK293
Procedure, shortened: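 Aβ40 in conditioned medium was quantified by time-resolved fluorescence sandwich ELISA (pAb40 capture 3 h at 4 °C, biotin-6E10 detection 2 h at 4 °C) after 24 h compound exposure of APP-expressing cells. Doses spanned 10 points from 100 μM or 10 μM top, 0.1% DMSO; IC50 was derived from percent of control.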

Chain of Beta Secretase enzyme (BACE1) (P56817 46-501): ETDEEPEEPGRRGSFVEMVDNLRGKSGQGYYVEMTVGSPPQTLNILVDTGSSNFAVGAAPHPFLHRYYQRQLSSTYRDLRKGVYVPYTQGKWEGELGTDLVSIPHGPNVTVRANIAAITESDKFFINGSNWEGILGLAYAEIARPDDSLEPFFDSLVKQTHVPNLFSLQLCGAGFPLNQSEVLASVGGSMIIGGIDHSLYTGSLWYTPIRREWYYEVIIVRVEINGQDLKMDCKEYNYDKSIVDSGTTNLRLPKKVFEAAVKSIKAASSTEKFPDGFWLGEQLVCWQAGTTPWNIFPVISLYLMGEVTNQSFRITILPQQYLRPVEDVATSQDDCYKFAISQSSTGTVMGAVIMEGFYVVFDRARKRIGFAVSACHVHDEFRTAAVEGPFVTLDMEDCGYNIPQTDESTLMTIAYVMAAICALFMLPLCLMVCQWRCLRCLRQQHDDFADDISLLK

IC50 (Cathepsin D (Cat D)) [µM]	IC50 [1] [µM]	IC50 [2] [µM]	IC50 ([1]; average IC50, enzyme assay) [µM]	IC50 ([2]; average IC50, cell assay) [µM]	IC50 ([2]; average IC50, HEK cell assay) [µM]	SMILES	IC50 ([1]; average IC50) [µM]	IC50 ([2]; average IC50, HEK cells) [µM]
193						Cc1cc(C(F)F)cnc1C(=O)Nc1ccc(F)c([C@@]2(C)N=C(N)C3(CC3)S(=O)(=O)[C@@H]2F)c1 [Example 206, N-(3-((5S,6R)-8-amino-5-fluoro-6-methyl-4,4-dioxido-4-thia-7-azaspiro[2.5]oct-7-en-6-yl)-4-fluorophenyl)-5-(difluoromethyl)-3-methyl-2-pyridinecarboxamide]	0.0019	0.0054
> 400	0.0016	0.018				CC1(C)C(N)=N[C@](CF)(c2cc(NC(=O)c3ncc(F)cc3F)ccc2F)CS1(=O)=O [Example 378, N-(3-((3S)-5-amino-3-(fluoromethyl)-6,6-dimethyl-1,1-dioxido-3,6-dihydro-2H-1,4-thiazin-3-yl)-4-fluorophenyl)-3,5-difluoro-2-pyridinecarboxamide]		
104			2.29	> 15.6		CC1(C)C(N)=N[C@](C)(c2cc(C(=O)Nc3ccc(C#N)cc3O)ccc2F)CS1(=O)=O [Example 173, (R)-3-(5-amino-3,6,6-trimethyl-1,1-dioxido-3,6-dihydro-2H-1,4-thiazin-3-yl)-N-(4-cyano-2-hydroxyphenyl)-4-fluorobenzamide]		
136	0.0004	0.0232				Cc1cc(Cl)cnc1C(=O)Nc1ccc(F)c([C@]2(CF)CS(=O)(=O)C(C)(C)C(N)=N2)c1 [Example 408, N-(3-((3S)-5-amino-3-(fluoromethyl)-6,6-dimethyl-1,1-dioxido-3,6-dihydro-2H-1,4-thiazin-3-yl)-4-fluorophenyl)-5-chloro-3-methyl-2-pyridinecarboxamide]		
408	0.0038	0.0118				COc1cc(Cl)cnc1C(=O)Nc1ccc(F)c([C@@]2(C)N=C(N)C3(CCC3)S(=O)(=O)[C@@H]2F)c1 [Example 139, N-(3-((6S,7R)-9-amino-6-fluoro-7-methyl-5,5-dioxido-5-thia-8-azaspiro[3.5]non-8-en-7-yl)-4-fluorophenyl)-5-chloro-3-methoxypicolinamide]		
43.1			0.00194	0.0058		CC1(C)C(N)=N[C@](C)(c2cc(Nc3ncc(F)c4cc(C#N)cnc34)cnc2F)CS1(=O)=O [Example 221, 8-((5-((3R)-5-amino-3,6,6-trimethyl-1,1-dioxido-3,6-dihydro-2H-1,4-thiazin-3-yl)-6-fluoro-3-pyridinyl)amino)-5-fluoro-1,7-naphthyridine-3-carbonitrile]		
219			2.01		2.23	CC1(C)C(N)=N[C@](C)(c2cc(Oc3ncc(C(N)=O)c4sccc34)ccc2F)CS1(=O)=O [Example 292, 4-(3-((3R)-5-amino-3,6,6-trimethyl-1,1-dioxido-3,6-dihydro-2H-1,4-thiazin-3-yl)-4-fluorophenoxy)thieno[3,2-c]pyridine-7-carboxamide]		
233	0.0014	0.0123				Cc1cc(C(F)F)cnc1C(=O)Nc1ccc(F)c([C@]2(CF)CS(=O)(=O)C3(CCC3)C(N)=N2)c1 [Example 369, N-(3-((7S)-9-amino-7-(fluoromethyl)-5,5-dioxido-5-thia-8-azaspiro[3.5]non-8-en-7-yl)-4-fluorophenyl)-5-(difluoromethyl)-3-methyl-2-pyridinecarboxamide]		
20			0.0051		0.0044	Cc1cc(Cl)cnc1C(=O)Nc1ccc(F)c([C@@]2(C)N=C(N)C(C)(C)S(=O)(=O)C23CC3)c1 [Example 340, N-(3-((8R)-6-amino-5,5,8-trimethyl-4,4-dioxido-4-thia-7-azaspiro[2.5]oct-6-en-8-yl)-4-fluorophenyl)-5-chloro-3-methyl-2-pyridinecarboxamide]		
145			0.184	0.742		Cc1nc2c(Nc3ccc(F)c([C@]4(C)CS(=O)(=O)C(C)(C)C(N)=N4)c3)cccc2s1 [Example 105, (R)-5-amino-3-(2-fluoro-5-((2-methylbenzo[d]thiazol-4-yl)amino)phenyl)-3,6,6-trimethyl-3,6-dihydro-2H-1,4-thiazine 1,1-dioxide]		
12.2			0.208	0.36		CC1(C)C(N)=N[C@](C)(c2cc(NCc3c(Cl)cnn3CC(F)(F)F)ccc2F)CS1(=O)=O [Example 109, (R)-5-amino-3-(5-(((4-chloro-1-(2,2,2-trifluoroethyl)-1H-pyrazol-5-yl)methyl)amino)-2-fluorophenyl)-3,6,6-trimethyl-3,6-dihydro-2H-1,4-thiazine 1,1-dioxide]		
190			3.72	3.03		CC1(C)C(N)=N[C@](C)(c2cc(N)ccc2F)[C@@H](F)S1(=O)=O [Example 164, (2S,3R)-5-amino-3-(5-amino-2-fluorophenyl)-2-fluoro-3,6,6-trimethyl-3,6-dihydro-2H-1,4-thiazine 1,1-dioxide]		
280			0.00259	0.0036		COc1cnc2c(Nc3cnc(F)c([C@]4(C)CS(=O)(=O)C(C)(C)C(N)=N4)c3)nccc2n1 [Example 222, N-(5-((3R)-5-amino-3,6,6-trimethyl-1,1-dioxido-3,6-dihydro-2H-1,4-thiazin-3-yl)-6-fluoro-3-pyridinyl)-2-methoxypyrido[3,4-b]pyrazin-5-amine]		
1370			0.00102		0.0651	Cc1cc(C#N)cnc1C(=O)Nc1ccc(F)c([C@]2(C)CS(=O)(=O)[C@@](C)(F)C(N)=N2)c1 [Example 324, N-(3-((3R,6R)-5-amino-6-fluoro-3,6-dimethyl-1,1-dioxido-3,6-dihydro-2H-1,4-thiazin-3-yl)-4-fluorophenyl)-5-cyano-3-methyl-2-pyridinecarboxamide]		
> 400			0.00507		0.0137	Cc1c(C(=O)Nc2ccc(F)c([C@]3(CF)CS(=O)(=O)C4(CCC4)C(N)=N3)c2)nc2ccc(Cl)cn12 [Example 367, N-(3-((7S)-9-amino-7-(fluoromethyl)-5,5-dioxido-5-thia-8-azaspiro[3.5]non-8-en-7-yl)-4-fluorophenyl)-6-chloro-3-methylimidazo[1,2-a]pyridine-2-carboxamide]		
311			0.00056		0.0068	COCc1cc(Cl)cnc1C(=O)Nc1ccc(F)c([C@@]2(C)N=C(N)C(C)(C)S(=O)(=O)C2F)c1 (stereo partly drawn) [Example 335, N-(3-((3R)-5-amino-2-fluoro-3,6,6-trimethyl-1,1-dioxido-3,6-dihydro-2H-1,4-thiazin-3-yl)-4-fluorophenyl)-5-chloro-3-(methoxymethyl)-2-pyridinecarboxamide]		

SMILES	IC50 (Cathepsin D (Cat D)) [µM]	IC50 [1] [µM]	IC50 [2] [µM]	IC50 ([1]; average IC50, enzyme assay) [µM]	IC50 ([2]; average IC50, cell assay) [µM]	IC50 ([2]; average IC50, HEK cell assay) [µM]	IC50 ([1]; average IC50) [µM]	IC50 ([2]; average IC50, HEK cells) [µM]
NC1=N[C@@](CF)(c2cc(Br)ccc2F)CS(=O)(=O)C12CCC2 [Example 418, (7R)-7-(5-bromo-2-fluorophenyl)-7-(fluoromethyl)-5-thia-8-azaspiro[3.5]non-8-en-9-amine 5,5-dioxide]	> 400			> 40	> 15.6			
NC1=N[C@](CF)(c2cc(Br)ccc2F)CS(=O)(=O)C12CCC2 [Example 172, (S)-9-amino-7-(5-bromo-2-fluorophenyl)-7-(fluoromethyl)-5-thia-8-azaspiro[3.5]non-8-ene 5,5-dioxide]	45.4						3.56	> 15.6
